# ChEMBL document CHEMBL4184118, “Carbazole-containing amides and ureas: Discovery of cryptochrome modulators as antihyperglycemic agents” (Bioorg Med Chem Lett, 2018)
# Key:
# CRY2/PER2 = biological target: T1, CRY2/PER2 (Homo sapiens, UniProt O15055+Q49AN0); assay: Modulation activity at CRY2/PER2 in human U2OS cells harboring per2-dLuc assessed as activation of per2 activity measured every 100 mins for 5 days by luciferase reporter gene assay; format: cell-based
# T1 sequence (O15055 whole entry): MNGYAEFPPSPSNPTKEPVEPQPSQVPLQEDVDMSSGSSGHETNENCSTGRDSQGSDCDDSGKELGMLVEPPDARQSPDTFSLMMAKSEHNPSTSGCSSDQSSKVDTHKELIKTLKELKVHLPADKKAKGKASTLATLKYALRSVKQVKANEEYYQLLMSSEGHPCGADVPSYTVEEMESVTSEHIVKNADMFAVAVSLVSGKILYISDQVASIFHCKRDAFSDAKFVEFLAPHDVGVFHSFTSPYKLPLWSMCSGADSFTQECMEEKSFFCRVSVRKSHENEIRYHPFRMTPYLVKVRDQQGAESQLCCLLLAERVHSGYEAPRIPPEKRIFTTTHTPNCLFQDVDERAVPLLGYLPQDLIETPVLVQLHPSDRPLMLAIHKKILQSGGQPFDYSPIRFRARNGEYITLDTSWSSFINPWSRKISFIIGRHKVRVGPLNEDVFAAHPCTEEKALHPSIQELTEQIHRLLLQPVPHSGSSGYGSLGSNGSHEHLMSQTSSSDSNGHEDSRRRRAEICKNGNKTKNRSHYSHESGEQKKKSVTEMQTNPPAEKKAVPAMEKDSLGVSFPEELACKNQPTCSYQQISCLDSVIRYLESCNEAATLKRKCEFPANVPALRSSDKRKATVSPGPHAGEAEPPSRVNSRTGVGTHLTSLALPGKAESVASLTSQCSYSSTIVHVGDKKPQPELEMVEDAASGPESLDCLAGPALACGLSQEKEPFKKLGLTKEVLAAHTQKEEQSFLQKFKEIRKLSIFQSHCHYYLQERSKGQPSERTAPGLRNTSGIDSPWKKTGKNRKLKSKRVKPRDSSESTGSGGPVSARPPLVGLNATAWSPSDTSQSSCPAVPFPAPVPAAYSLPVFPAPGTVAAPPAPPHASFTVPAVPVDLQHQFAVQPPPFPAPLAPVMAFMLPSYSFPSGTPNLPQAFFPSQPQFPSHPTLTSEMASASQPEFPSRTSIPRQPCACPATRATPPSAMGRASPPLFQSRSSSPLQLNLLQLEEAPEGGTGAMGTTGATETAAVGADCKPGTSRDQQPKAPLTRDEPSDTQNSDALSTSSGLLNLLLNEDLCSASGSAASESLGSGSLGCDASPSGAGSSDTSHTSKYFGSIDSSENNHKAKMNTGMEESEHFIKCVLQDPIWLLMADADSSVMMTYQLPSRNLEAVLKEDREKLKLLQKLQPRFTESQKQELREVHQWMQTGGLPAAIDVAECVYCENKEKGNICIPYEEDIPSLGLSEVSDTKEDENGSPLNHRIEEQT
# T1 sequence (Q49AN0 whole entry): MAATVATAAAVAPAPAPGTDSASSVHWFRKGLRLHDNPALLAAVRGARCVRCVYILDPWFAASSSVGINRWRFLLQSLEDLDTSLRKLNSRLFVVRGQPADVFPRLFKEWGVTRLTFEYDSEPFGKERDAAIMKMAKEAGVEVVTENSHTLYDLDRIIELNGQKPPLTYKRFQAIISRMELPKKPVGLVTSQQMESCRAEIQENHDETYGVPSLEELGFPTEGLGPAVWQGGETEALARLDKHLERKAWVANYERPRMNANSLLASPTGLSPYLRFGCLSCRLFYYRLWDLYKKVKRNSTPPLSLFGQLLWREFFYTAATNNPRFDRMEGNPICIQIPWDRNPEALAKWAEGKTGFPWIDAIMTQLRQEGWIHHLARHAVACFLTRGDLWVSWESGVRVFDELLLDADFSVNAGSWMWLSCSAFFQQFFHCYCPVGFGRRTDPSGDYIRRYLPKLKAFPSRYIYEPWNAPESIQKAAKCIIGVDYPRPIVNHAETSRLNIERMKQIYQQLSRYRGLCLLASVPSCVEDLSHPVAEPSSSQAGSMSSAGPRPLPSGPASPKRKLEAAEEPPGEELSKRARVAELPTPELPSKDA
# Mus musculus = assay: Unbound Cmax in db/db mouse at 30 mg/kg, po qd after 1 to 24 hrs; format: ADME, organism-based; settings: in vivo
# [1] = Total Cmax in db/db mouse at 30 mg/kg, po qd after 1 to 24 hrs; format: ADME, organism-based; parameters: dose 30 mg/kg, route oral; settings: in vivo
# [2] = Kinetic solubility in simulated gastric fluid; format: physicochemical; settings: read-out: Kinetic_solubility
# [3] = Half life in db/db mouse at 30 mg/kg, po qd; format: ADME, organism-based; settings: in vivo
# [4] = MRT in db/db mouse at 30 mg/kg, po qd after 1 to 24 hrs; format: ADME, organism-based; settings: in vivo
Structure (SMILES),EC50 (CRY2/PER2) [nM],further results
CC1CNC(=O)N1CC(O)Cn1c2ccc(F)cc2c2cc(F)ccc21 (stereo not drawn),1190,
CCC1CCCN(CC(O)Cn2c3ccc(F)cc3c3cc(F)ccc32)C1=O (stereo not drawn),332,
CC1CNC(=O)N(CC(O)Cn2c3ccc(F)cc3c3cc(F)ccc32)C1 (stereo not drawn),833,
CN1CCCN(CC(O)Cn2c3ccc(F)cc3c3cc(F)ccc32)C1=O (stereo not drawn),719,fCmax (Mus musculus): 0.002 µM; Cmax [1]: 63 nM; solubility kinetic [2]: 162 µM; half-life [3]: 154 min; MRT [4]: 3.51 h
CCN1CCCN(CC(O)Cn2c3ccc(F)cc3c3cc(F)ccc32)C1=O (stereo not drawn),497,
CCN1CCN(CC(O)Cn2c3ccc(F)cc3c3cc(F)ccc32)C1=O (stereo not drawn),1060,
CCC1CCN(CC(O)Cn2c3ccc(F)cc3c3cc(F)ccc32)C1=O (stereo not drawn),417,
O=C1CC2CC2CN1CC(O)Cn1c2ccc(F)cc2c2cc(F)ccc21 (stereo not drawn),149,
CC1CCN(CC(O)Cn2c3ccc(F)cc3c3cc(F)ccc32)C(=O)N1 (stereo not drawn),417,
CN1CCN(CC(O)Cn2c3ccc(F)cc3c3cc(F)ccc32)C1=O (stereo not drawn),406,
O=C1COCCN1CC(O)Cn1c2ccc(F)cc2c2cc(F)ccc21 (stereo not drawn),447,
CC1CCCC(=O)N1CC(O)Cn1c2ccc(F)cc2c2cc(F)ccc21 (stereo not drawn),541,
CC1CCN(CC(O)Cn2c3ccc(F)cc3c3cc(F)ccc32)C1=O (stereo not drawn),424,
CC1CC(=O)N(CC(O)Cn2c3ccc(F)cc3c3cc(F)ccc32)C1 (stereo not drawn),1030,
COC1CNC(=O)N(CC(O)Cn2c3ccc(F)cc3c3cc(F)ccc32)C1 (stereo not drawn),1120,
O=C1C2CC2CN1CC(O)Cn1c2ccc(F)cc2c2cc(F)ccc21 (stereo not drawn),246,
O=C1C(F)CCN1CC(O)Cn1c2ccc(F)cc2c2cc(F)ccc21 (stereo not drawn),,fCmax (Mus musculus): 0.03 µM; Cmax [1]: 1010 nM; solubility kinetic [2]: 184 µM; half-life [3]: 178 min; MRT [4]: 3.27 h
O=C1C(F)CCCN1CC(O)Cn1c2ccc(F)cc2c2cc(F)ccc21 (stereo not drawn),79,
CS(=O)(=O)N(Cc1ccco1)CC(O)Cn1c2ccccc2c2ccccc21 (stereo not drawn),870,
CC(C)N1CCCN(CC(O)Cn2c3ccc(F)cc3c3cc(F)ccc32)C1=O (stereo not drawn),620,
COC1CCC(=O)N(CC(O)Cn2c3ccc(F)cc3c3cc(F)ccc32)C1 (stereo not drawn),397,
CC1(C)CCCN(CC(O)Cn2c3ccc(F)cc3c3cc(F)ccc32)C1=O (stereo not drawn),463,
O=C1N(CC(O)Cn2c3ccc(F)cc3c3cc(F)ccc32)CCC1(F)F (stereo not drawn),716,
O=C1C(c2ccccc2)CCCN1CC(O)Cn1c2ccc(F)cc2c2cc(F)ccc21 (stereo not drawn),547,
COC1CCCN(CC(O)Cn2c3ccc(F)cc3c3cc(F)ccc32)C1=O (stereo not drawn),330,fCmax (Mus musculus): 0.007 µM; Cmax [1]: 235 nM; solubility kinetic [2]: 188 µM; half-life [3]: 130 min; MRT [4]: 2.68 h
O=C1CCc2ccccc2N1CC(O)Cn1c2ccc(F)cc2c2cc(F)ccc21 (stereo not drawn),7430,
CC1CCC(=O)N1CC(O)Cn1c2ccc(F)cc2c2cc(F)ccc21 (stereo not drawn),199,

Structure (SMILES),EC50 (CRY2/PER2) [nM],further results
O=C1NCCCN1CC(O)Cn1c2ccc(F)cc2c2cc(F)ccc21 (stereo not drawn),188,fCmax (Mus musculus): 0.045 µM; Cmax [1]: 1020 nM; solubility kinetic [2]: 85.6 µM; half-life [3]: 143 min; MRT [4]: 2.98 h
O=C1N(CC(O)Cn2c3ccc(F)cc3c3cc(F)ccc32)CCCN1c1ccccc1 (stereo not drawn),171,
COC1CC(=O)N(CC(O)Cn2c3ccc(F)cc3c3cc(F)ccc32)C1 (stereo not drawn),1140,
CC1CCC(=O)N(CC(O)Cn2c3ccc(F)cc3c3cc(F)ccc32)C1 (stereo not drawn),224,
CC1CN(CC(O)Cn2c3ccc(F)cc3c3cc(F)ccc32)C(=O)N1 (stereo not drawn),667,fCmax (Mus musculus): 0.01 µM; Cmax [1]: 557 nM; solubility kinetic [2]: 181 µM; half-life [3]: 155 min; MRT [4]: 4.16 h
O=C1C2CC2CCN1CC(O)Cn1c2ccc(F)cc2c2cc(F)ccc21 (stereo not drawn),167,
CC1CCNC(=O)N1CC(O)Cn1c2ccc(F)cc2c2cc(F)ccc21 (stereo not drawn),742,
COC1CCN(CC(O)Cn2c3ccc(F)cc3c3cc(F)ccc32)C1=O (stereo not drawn),855,
CC1(C)CCN(CC(O)Cn2c3ccc(F)cc3c3cc(F)ccc32)C1=O (stereo not drawn),164,
CC(C)N1CCN(CC(O)Cn2c3ccc(F)cc3c3cc(F)ccc32)C1=O (stereo not drawn),605,
O=C1c2ccccc2CCN1CC(O)Cn1c2ccc(F)cc2c2cc(F)ccc21 (stereo not drawn),1360,
O=C1Cc2ccccc2N1CC(O)Cn1c2ccc(F)cc2c2cc(F)ccc21 (stereo not drawn),3730,
O=C1OCCCN1CC(O)Cn1c2ccc(F)cc2c2cc(F)ccc21 (stereo not drawn),4980,
O=C1CCC2CC2N1CC(O)Cn1c2ccc(F)cc2c2cc(F)ccc21 (stereo not drawn),565,
CC(C)C1CCCN(CC(O)Cn2c3ccc(F)cc3c3cc(F)ccc32)C1=O (stereo not drawn),79,
O=C1CCCN1CC(O)Cn1c2ccc(F)cc2c2cc(F)ccc21 (stereo not drawn),625,fCmax (Mus musculus): 0.011 µM; Cmax [1]: 415 nM; solubility kinetic [2]: 148 µM; half-life [3]: 177 min; MRT [4]: 3.32 h
CC(C)C1CCN(CC(O)Cn2c3ccc(F)cc3c3cc(F)ccc32)C1=O (stereo not drawn),261,
O=C1N(CC(O)Cn2c3ccc(F)cc3c3cc(F)ccc32)CCN1c1ccccc1 (stereo not drawn),528,
CC1CCCN(CC(O)Cn2c3ccc(F)cc3c3cc(F)ccc32)C1=O (stereo not drawn),1150,
O=C1Cc2ccccc2CN1CC(O)Cn1c2ccc(F)cc2c2cc(F)ccc21 (stereo not drawn),15200,
O=C1c2ccccc2CN1CC(O)Cn1c2ccc(F)cc2c2cc(F)ccc21 (stereo not drawn),1490,
O=C1OCCN1CC(O)Cn1c2ccc(F)cc2c2cc(F)ccc21 (stereo not drawn),9770,
O=C1N(CC(O)Cn2c3ccc(F)cc3c3cc(F)ccc32)CCCC1(F)F (stereo not drawn),194,
O=C1C2CCC(C2)N1CC(O)Cn1c2ccc(F)cc2c2cc(F)ccc21 (stereo not drawn),163,fCmax (Mus musculus): 0.01 µM; Cmax [1]: 551 nM; solubility kinetic [2]: 168 µM; half-life [3]: 128 min; MRT [4]: 2.92 h
O=C1C(c2ccccc2)CCN1CC(O)Cn1c2ccc(F)cc2c2cc(F)ccc21 (stereo not drawn),487,
CC1CCN(CC(O)Cn2c3ccc(F)cc3c3cc(F)ccc32)C(=O)C1 (stereo not drawn),128,
O=C1CCCCN1CC(O)Cn1c2ccc(F)cc2c2cc(F)ccc21 (stereo not drawn),192,
